Data as given in ChEMBL document CHEMBL1123820 (J Med Chem, 1987).
Activity calls are given as the source filed them. No cut-off for these calls is given here. Where a SMILES comes first, the peptide text is derived from it. [ ]: non-standard residue; d: D form. The star is where a group is joined. Orn = NCCC[C@H](N)C(=O)O; OBn = c1ccc(CO*)cc1

Key:
Cavia porcellus [1] = organism: Cavia porcellus; test: Relative activity was measured in vitro with respect to substance P (SP) in guinea pig ileum; type: functional
Rattus norvegicus [2] = organism: Rattus norvegicus; test: Relative activity was measured in vitro with respect to substance P (SP) in rat colon muscularis mucosae; type: functional, Muscularis mucosa
Cavia porcellus [3] = organism: Cavia porcellus; test: Relative activity was measured in vitro with respect to substance P (SP) in guinea pig ileum at a concentration of 10 uM; Inactive; type: functional
Rattus norvegicus [4] = organism: Rattus norvegicus; test: Relative activity was measured in vitro with respect to substance P (SP) in rat colon muscularis mucosae at a concentration of 10 uM; Inactive; type: functional; conditions: Muscularis mucosa

| Compound | Relative activity (Cavia porcellus [1]) | Relative activity (Rattus norvegicus [2]) | Relative activity (Cavia porcellus [3]) | Relative activity (Rattus norvegicus [4]) |
| --- | --- | --- | --- | --- |
| CC(C)C[C@H](NC(=O)CNC(=O)[C@H](Cc1ccccc1)NC(=O)[C@H](Cc1ccccc1)NC(=O)[C@@H](N)CCCN)C(=O)N[C@@H](CCC(=O)OCc1ccccc1)C(N)=O (H-[Orn]FFGLE(OBn)-NH2) | 0.14 | 0.61 | – | – |
| CC(C)C[C@H](NC(=O)CNC(=O)[C@H](Cc1ccccc1)NC(=O)[C@H](Cc1ccccc1)NC(=O)[C@@H](N)CCCN)C(=O)N[C@@H](CCC(=O)O)C(N)=O (H-[Orn]FFGLE-NH2) | 0.00058 | <0.01 | – | – |
| CC(C)C[C@H](NC(=O)CNC(=O)[C@H](Cc1ccccc1)NC(=O)[C@H](Cc1ccccc1)NC(=O)[C@@H](N)CCCN)C(=O)N[C@@H](CCCCN)C(N)=O (H-[Orn]FFGLK-NH2) | – | – | inactive | inactive |
| CSCC[C@H](NC(=O)[C@H](CC(C)C)NC(=O)CNC(=O)[C@H](Cc1ccccc1)NC(=O)[C@H](Cc1ccccc1)NC(=O)[C@@H](N)CCCN)C(N)=O (H-[Orn]FFGLM-NH2) | 0.39 | 0.36 | – | – |
| CC(C)C[C@H](NC(=O)CNC(=O)[C@H](Cc1ccccc1)NC(=O)[C@H](Cc1ccccc1)NC(=O)[C@@H](N)CCCN)C(=O)N[C@@H](CCC(N)=O)C(N)=O (H-[Orn]FFGLQ-NH2) | 0.0022 | <0.01 | – | – |
| H-QFFGLM-NH2 | 0.3 | 0.076 | – | – |
